Experimental data from patent publication US11013224B2, “Substance and composition for veterinary purpose” (priority 2016, dated 2021).
Like-named read-outs stand apart in the source and are kept apart here.

Key:
[1] = test system: hoof; assay: Application of cromoglycate using limb perfusion in healthy horses; type: in vivo
Procedure: Standard blood analysis was carried out before and after treatment. Hoof quality and growth were determined over a period of time as described above.

[2] = test system: hoof; assay: Application of cromoglycate using inhalation in horses; type: in vivo
Procedure: Gas mix system and the Air-ONE nebuliser were prepared and operated as per manufacturer's instructions. […] Treatment was continued until all 70 ml had been inhaled (between 20 to 30 minutes). Horses were treated at 2 day intervals for at least 1 and up to 3 weeks. […] Micro-circulation was measured during inhalation using PeriFlux System 5000. Hoof quality and growth were determined as described above.

[3] = test system: hoof
Procedure: Routine equine intravenous fluid therapy was carried out twice per week for 4 weeks. Standard blood analysis was carried out on Abbott i-STAT systems, Abbott Architect ci8200 and Architect Celldyn CD3700 before and after treatment. Micro-circulation was measured during treatment using PeriFlux System 5000. Hoof quality and growth were determined as described above.

[4] = limb perfusion, 35 ml of 71 g/L per front limb

O=C(O)c1cc(=O)c2c(OCC(O)COc3cccc4oc(C(=O)O)cc(=O)c34)cccc2o1 [sodium cromoglycate]
Heart rate, temperature and gut sounds ([1]; 24 h after injection): normal
Hoof growth and hoof quality ([1]; limb perfusion): increases hoof growth and improves hoof quality
Ionized calcium, pre vs post treatment blood data [1, 4]: a change
Potassium, pre vs post treatment blood data [1, 4]: a reduction
Tolerability of repeated inhalation ([2]; 70 ml of 70 g/l per horse by nebuliser, 2 day intervals, 1 to 3 weeks): well tolerated
Calcium upon treatment ([2]; inhalation): effected
Digestion, coat and hoof quality ([2]; inhalation): improves
Hoof growth and hoof quality ([2]; inhalation): increases hoof growth and improves hoof quality
Micro-circulation ([2]; measured during inhalation, PeriFlux System 5000): activates
Hoof growth and hoof quality ([3]; intravenous fluid): increases hoof growth and improves hoof quality
Digestion, coat and hoof quality ([3]; intravenous fluid infusion): improves
Calcium upon treatment ([3]; intravenous fluid therapy): effected
